Measurements reported in patent publication US20230381077A1, “Antibacterial And Deodorizing Composition, And Preparation Method Therefor” (LG Chem, Ltd., priority 2021, published 2023).

Assays:
E. coli = assay: Antibacterial power measurement of first compound (bacterial inhibition rate, broth, absorbance 600 nm); format: cell-based; conditions: Escherichia coli, 0.01 g first compound in 25 ml broth, 3,000 CFU/ml, 35° C. for 16 hours
Proteus mirabilis = assay: as above; format: cell-based; conditions: 0.01 g first compound in 25 ml broth, 3,000 CFU/ml, 35° C. for 16 hours

Compound | inhibition of growth at 400 µg/mL (E. coli; 16 h) [%] | inhibition of growth at 400 µg/mL (Proteus mirabilis; 16 h) [%] | inhibition of growth at 400 µg/mL (E. coli) [%] | inhibition of growth at 400 µg/mL (Proteus mirabilis) [%]
CCCCCCCCCCCCCCCC[N+](C)(C)C [Hexadecyltrimethylammonium chloride, reference compound] | 92.1 | 93.5 | – | –
CCCCCCCCCC[N+](C)(C)CCCCCCCCO [reference compound] | – | – | 82.1 | 85.1
CCCCCCCCCCCC[N+](C)(C)CCCCCCCCCCCC [Didodecyldimethylammonium chloride, reference compound] | – | – | 90.1 | 88.5
CCCC[N+](C)(CCO)CCO [Antibacterial Deodorant Monomer G] | – | – | 15.2 | 18.3
CCCCCCCCCCCC[N+](C)(C)CCO [Antibacterial Deodorant Monomer E] | – | – | 96.1 | 96.9
CCCCCCCCCCCC[N+](CCO)(CCCCCCCCCC)CCCCCCCCCCCC [reference compound] | – | – | 79.8 | 81.3
CCCCCCCCCC[N+](C)(CCO)CCO [Antibacterial Deodorant Monomer A] | – | – | 98.9 | 99.9
N=C(N)N [Guanidine, reference compound] | – | – | 96.5 | 97.2
CCCCCCCC[N+](C)(CCO)CCO [Antibacterial Deodorant Monomer B] | – | – | 89.3 | 91.2
CCCCCCCCCC[N+](C)(C)CCO [Antibacterial Deodorant Monomer D] | – | – | 94.4 | 91.7
CCCCCCCCCC[N+](C)(C)CCO [Antibacterial Deodorant Monomer F] | 96.4 | 83.1 | – | –
